Entries after “also recorded” stand apart in the source; their conditions may differ. No end group written: not given here.

For experiment [1], the system named is opiate receptor, guinea pig brain membranes. Kind of experiment: Opiate agonist activity by receptor binding assay (method of Simon et al.), inhibition of stereospecific binding. Conditions: for Response: percentage of inhibition of stereospecific binding: mean ± standard error from 4 determinations. How it is done: The opiate agonist activity of natural beta-endophine was determined by the method of Simon et al., Proc. Nat. Acad. Sci. 70, 1947 (1973) using guinea pig brain membranes. The results obtained are summarized below in Table 4:
^a Percentage of inhibition of stereospecific binding.
Mean ± standard error from 4 determinations.

For experiment [2] the following is noted: pentapeptide isolated from pig brains; cited from earlier work.
For the next experiment, the system named is rabbit fat cells. Description: Lipolytic activity in rabbit fat cells (procedure of Li et al.), glycerol production. It counts as cell-based. Conditions: for Response: glycerol production: triplicate, mean ± standard error. The text has this:
The lypolytic activity of natural beta-endorphin was compared to the activity of ovine beta-lipotropin hormone in rabbit fat cells using the procedure of Li et al., Arch. Biochem. Biophys. 169, 669 (1975).
^a Micromole of glycerol production per gram of cells per hour.
Determinations in triplicate. Values in mean ± standard error.

Regarding `Oc1ccc2c3c1O[C@H]1[C@@H](O)C=C[C@H]4[C@@H](C2)NCC[C@@]341` [Normorphine, reference compound], the “Response: percentage of inhibition of stereospecific binding” value is 28 ± 0.8% in experiment [1] (dose 0.7 x 10^-7 M) and 70 ± 0.9% in experiment [1] (dose 7.0 x 10^-7 M).

With “H-Tyr-Gly-Gly-Phe-Met-OH- (H-YGGFM-OH) [pentapeptide isolated from pig brains by Hughes et al]”, the “Opiate agonist activity (in words)” value in experiment [2] is recorded as “exhibits opiate agonist activity”.

Take “YGGFMTSEKSQTPLVTLFKNAIIKNAHKKGQ [beta-endorphin]”: the “Opiate agonist activity (in words)” value in experiment [1] is “potent opiate agonist activity; also recorded: significant opiate agonist activity”. The “Relative potency to normorphine” value in experiment [1] (95% confidence limit of 300-392, λ = 0.044) came out at 342%. Also, the “Response: percentage of inhibition of stereospecific binding” value in experiment [1] (dose 1.0 x 10^-7 M) is given as 60 ± 0.7%; in experiment [1] (dose 10.0 x 10^-7 M) it was 83 ± 0.2%. Further, in experiment [1] (molar basis), the “Potency relative to normorphine on a molar basis” value is reported as 3.42 times. In the experiment on rabbit fat cells (compared with beta-lipotropin hormone), the “Lipolytic activity in comparison to the complete hormone (in words)” value is “very low”. The “Response: glycerol production” value in the experiment on rabbit fat cells (dose 1.1 (unit not given)) is 0.66 ± 0.28 Micromole of glycerol producti; in the experiment with rabbit fat cells (dose 10.0 (unit not given)), 1.42 ± 0.37 Micromole of glycerol producti.

(Values after patent US4038222A, “Untriakontapeptide with opiate activity” (Hoffman-La Roche Inc., priority 1976, dated 1977).)
